Tests used:
[1] = Relaxivity (r1, r2) in saline; format: physicochemical; conditions: NaCl 0.15 M in water, pH 7.3, 20 MHz, 39° C.
Description: (§1) Relaxivity values of the contrast agent of the present invention have been tested either in saline or in human serum obtained by Seronorm™ Human, freeze-dried human serum produced by Nycomed Pharma AS, Oslo, Norway. Serum obtained from said Seronorm™ is substantially equivalent to the fresh one, so its use in the relaxivity determination grants a good picture of the “in vivo” behaviour and, further, an excellent reproducibility of this test.

[2] = Relaxivity (r1, r2) in reconstituted human serum (Seronorm™ Human); format: physicochemical; conditions: Between 0 and 1 mM (Seronorm™ Human), 20 MHz, 39° C.
Description: as §1
The compounds object of the present invention are characterised by very high r1 and r2 relaxivity values. When measured in Seronorm™ Human at 20 MHz, at a temperature of 39° C., and at a concentration comprised from 0 to 1 mM, compounds of the present invention usually have r1 relaxivity equal to or, preferably, higher than 15^s−1mM^−1, thus confirming the formation of unexpectedly strong non-covalent bonds with serum proteins. […] Last, significative amounts of the preferred compounds of the invention have also been found in the urines, showing that, thanks to their binding to HSA, the same are very promising as blood pool diagnostic agents.

O=C(O)CN(CCN(CCN(CC(=O)O)CC(=O)O)C(CCCCNC(=O)C(c1ccccc1)c1ccccc1)C(=O)O)CC(=O)O (centres unmarked)
Relaxivity Saline r1 [1]: 5.70 mM⁻¹ s⁻¹ | Relaxivity Serum r1 [2]: 20.1 mM⁻¹ s⁻¹
